Assay results reported in patent EP4786454A1, “HETEROARYL DERIVATIVE AND USE THEREOF” (priority 2023, dated 2025).

Experiments:
[1] = tested on: MDR1-MDCK I cell line; test: Permeability evaluation, bidirectional transport (P-gp substrate); format: in vitro ADME; conditions: 2.00 µM, 90 minutes
Procedure: (§1) The purpose of this study was to evaluate and study the P-gp substrate of the compounds in MDR1 […] cells.
(§2) Transport assay: The test sample, nadolol, and metoprolol were administered at a concentration of 2.00 µM, and digoxin was administered at a concentration of 10.0 µM. The administration was performed bidirectionally (A-B and B-A directions), with two replicates for each administration concentration. The dosing solution, receiving solution, and transport buffer were pre-incubated in a 37.0 °C water bath for 30 minutes. The cell layer was rinsed twice with transport buffer. The dosing solution and receiving solution were added to the corresponding wells of the cell plate, respectively (75.0 µL to each apical well and 250 µL to each basolateral well, respectively). After the addition of samples, the cell plate was incubated in an incubator at 37.0°C, 5.0% CO2 and saturated humidity for 90 minutes. The initial dosing solution was used as the T0 sample. After 90 minutes of incubation, samples were collected from each well and labeled as A-B receiver, B-A receiver, A-B donor, and B-A donor, respectively. After the sample collection, all samples were mixed with an appropriate volume of transport buffer and stop solution. All samples were vortexed, and then centrifuged at 20.0 °C and 3220 × g for 10 minutes. An appropriate volume of the supernatant was transferred to a sample analysis plate. After sealing the plate, the samples were stored at 2.0 to 8.0 °C if not analyzed immediately. Analysis was performed using LC-MS/MS.
(§3) Cell membrane integrity assay: After the transport assay, the integrity of the MDR1-MDCK II cell layer was assayed by the Lucifer Yellow Rejection Assay. The remaining solution in the apical and basolateral wells was removed. 75.0 µL of transport buffer containing 100 µM Lucifer Yellow was added to the apical well, and 250 µL of transport buffer was added to the basolateral well, respectively. The cell plate was incubated in a cell culture incubator at 37 °C, 5% CO2 and saturated humidity for 30 minutes. Then, 20.0 µL of sample was taken from the apical end and mixed with 60.0 µL of transport buffer, and 80.0 µL of sample was taken from the basolateral end. The relative fluorescence unit (RFU) was measured at 425/528 nm (excitation/emission) using a microplate reader.
(§4) In this study, the sample analysis of the compounds and control compounds of nadolol, metoprolol, and digoxin was performed using LC-MS/MS. The retention time of the analytes and internal standards, chromatogram acquisition, and chromatogram integration were processed using the software Analyst (Sciex, Framingham, MA, USA). […] Semi-quantitative determination was performed using the ratio of the peak area of analyte to the peak area of internal standard.
(§5) The apparent permeability coefficient (Papp, cm/s), efflux ratio (ER), and recovery rate (%Solution Recovery) were calculated using the following formulas. Papp = (VR)/(Area × Time) × ([drug]receiver)/([drug]initial, donor) = (VR)/(Area × Time) × (CR)/(C0) [formula] Efflux Ratio = (Papp (B−A))/(Papp (A−B)) [formula] %Solution Recovery = (CR × VR + CD × VD)/(C0 × VD) × 100 [formula]
(§6) VR is the volume of the receiver solution (0.0750 mL for side A, and 0.250 mL for side B); Area is the surface area of the cell monolayer (0.143 cm^2); Time is the incubation time (5400 s); C0 is the initial peak area ratio of the test compound or the control compound at the donor; VD is the volume of the donor (0.0750 mL for side A, and 0.250 mL for side B); CD and CR are the peak area ratios of the test compound or the control compound at the donor and the receiver, respectively. The transmittance of Lucifer Yellow (%Lucifer Yellow) was calculated using the following formula: %Lucifer Yellow = (VBasolateral × RFUBasolateral)/(VApical × RFUApical + VBasolateral × RFUBasolateral) × 100 [formula]
(§7) RFUApical and RFUBasolateral are the relative fluorescence units of Lucifer Yellow at the apical and basolateral ends, respectively. […]

[2] = tested on: P-gp (MDR1); test: as above; format: in vitro ADME; conditions: dog, MDCK-MDR1; efflux ratio Papp (B-A)/Papp (A-B); read-out: HMDR1 ER
Procedure: as §1, §2, §3, §4, §5, §6, §7

SMILES | HMDR1 Papp A to B [1] | HMDR1 Papp B to A [1] | efflux ratio [2] | efflux ratio at 90 min, 2 µM [2]
CC(C)(C)CC(=O)Nc1nc2c(F)cc(C#N)cn2c1C12CC(C1)C2 [Compound 5] | 12.4 10^-6 cm/s | 42.4 10^-6 cm/s | 3.41 | 
CC(C)(C)CC(=O)Nc1nc2c(F)cc(C#N)cn2c1C1=CCCC1 [Compound 3] | 7.52 10^-6 cm/s | 31.2 10^-6 cm/s | 4.15 | 
CC(C)(C)CC(=O)Nc1nc2c(F)cc(C#N)cn2c1-c1ccc(OC(F)(F)F)cc1 [Compound 1] | 3.64 10^-6 cm/s | 18.3 10^-6 cm/s |  | 5.04
